How the values were obtained:
SW620 cells = assay: Tumour spheroid growth assay (CellTitre-Glo), SW620 parent and knockout clones; type: cell-based, human; conditions: SW620 spheroids
[1] = test system: MED14 phosphorylation in COLO205 cells; assay: CDK-phospho-motif immunoprecipitation and MED14 immunoblot, COLO205; type: cell-based, human; conditions: COLO205, 350 nM, 6 h
Description: In the absence of phospho-specific antibodies targeting these sites, we employed immunoprecipitation using CDK-phospho-motif antibodies followed by immunoblotting with a MED14 antibody to validate the observed reduction in MED14 phosphorylation. […] In contrast, phosphorylation of MED13 and MED26 was reduced in only 2 of 5 and 5 of 10 CDK-phospho-motif peptides, respectively (Figure E and Supporting Figure S2C). This heterogeneous phosphorylation pattern complicates validation using motif-based immunoprecipitation, as reductions at specific phospho-sites may be obscured by unchanged CDK-motif phosphorylation at other sites. […]
Cell monolayers were washed with PBS twice and lysed using a modified RIPA buffer, mRIPA (50 mM TRIS-HCl pH 7.4, 1% NP-40 substitute, 0.5% NaDOC, 150 mM NaCl, 1 mM EDTA, 0.02% SDS and 1:100 dilution of proteinase and phosphatase inhibitor cocktail, (#5872, Cell Signaling Technology) with overnight freezing at -80 °C and sonication of the cell pellet. Lysates were clarified by centrifugation and supernatants collected and protein concentration determined by a bicinchoninic acid (BCA) assay. […]
= biological repeats; * = phosphorylated residue). (B) STAT1SER727 phosphorylation in COLO205 or SW620 cell lysates detected using two different phospho-STAT1SER727-specific antibodies following treatment with 350 nM CCT251545 for 6 hours. […]

[2] = Plasma total concentration of compound (LC-MS/MS); type: in vivo, mice; conditions: 6 h after final dose
Procedure: for 20 mins at room temperature. […]
and body weights recorded. […]
quantification and pharmacodynamic biomarker analyses. All samples were stored […]
Plasma homogenates were extracted with 3 equivalent volumes of methanol containing olomoucine (500 nM) as an internal standard. Extracts were quantified for […]
ranging from 2 nM to 50 000 nM) with 4 quality control samples (25, 250,2500, and 7500 nM in duplicate) included at the beginning and the end of the analytical run.
Plasma homogenates were measured by LC−MS/MS on a Waters TQS following a separation on a Waters Acquity BEH C18 column (50 mm × 2.1 mm; 1.7 μm) with conditions of 0.1% formic acid (mobile phase A) and methanol (mobile phase B). The column was equilibrated at initial condition of 95% A and 5% B, linear gradient over 3 min to 100% B, held over 1 min, followed by linear gradient back to 5% B over 0.1 min, […]
mode by multiple reaction monitoring, 412.17 > 376.40at 33 eV for compound 109, […]
Phospho-proteome analyses
Adherent COLO205 cells were washed with PBS and cells lysed using urea lysis buffer (9 M Urea, 20 mM HEPES, pH 8.0, 1 mM beta-glycerophosphate, 1 mM sodium vanadate, 2.5 mM sodium pyrophosphate) and stored at -80 °C prior to analysis. The supernatants were reduced with 100 mM DTT for 30 minutes at 55 °C, followed by alkylation with 50 mM iodoacetimide for 15 minutes at ambient temperature in the dark. […]

SMILES	spheroid growth of CDK8 and double knockout clones (SW620 cells)	spheroid growth of CDK19 knockout clones (SW620 cells)	MED14 phosphorylation (CDK-phospho-motif immunoprecipitation, MED14 immunoblot) [1]	plasma total concentrations, parent versus knockout clones ([2]; 14-20 days, 42 mg/kg p.o qd 5/7 days, exception CDK8-KO-cl2 (p < 0.05))	plasma levels in parent versus individual knockout clones ([2]; 3 days, 42 mg/kg p.o. qd)
Cn1cc(-c2ccc(-c3cncc(Cl)c3N3CCC4(CCNC4=O)CC3)cc2)cn1 [CCT251545]	insensitive to treatment	growth inhibition similar to the parental line	decrease was evident		
Cn1ncc2cc(-c3cnc(N)c(Cl)c3N3CCC4(CCNC4=O)CC3)ccc21 [CCT251921]				no significant differences	no significant difference
